Assay results reported in US20210363124A1, “HETEROCYCLYL POLYMETHINE IR CHROMOPHORES” (The Regents of the University of California, priority 2018, published 2021).
Entries after “also recorded” stand apart in the source; their conditions may differ. Values belong to the compound of their own block, whether it stands above or below them.

Tests used:
Format in all cases: physicochemical
[1] = Photobleaching under continuous-wave irradiation (532 nm, 0.53 fluence); details: for photostability (in words): dichloromethane, 532 nm irradiation
Protocol: Photostabilities of the Flav series were measured under continuous-wave irradiation (532 nm, 0.53 fluence).
(§1) Polymethine dyes disclosed herein are characterized with respect to their photophysics including absorption, emission, extinction coefficient, quantum yields, and fluorescence lifetime. All quantum yields values obtained are absolute quantum yields values measured using an integrating sphere. Photostabilities are evaluated by sample irradiation with high powered LEDs. Additionally, solvatochromism, solvent compatibility, and stability are assessed.

[2] = Absorption spectra of flavylium dyes in dichloromethane (UV-Visible/NIR spectrophotometer)
Protocol: (§2) The absorption, emission, and photostability properties of flavylium dyes 3-6 were measured.
(§3) The absorbance spectra in FIG. 2 and FIGS. 4A-4G were obtained in DCM on a JASCO V-770 UV-Visible/NIR spectrophotometer with a 2000 nm/min or 4000 nm/min scan rate. Plotted are the baseline corrected and normalized data. The emission spectra in FIG. 2 were taken in DCM on either a Horiba Instruments PTI QuantaMaster Series fluorometer (6), a Fluoromax-3 spectrofluorometer (1, 3-5), or home-built InGaAs array detector (Princeton Instruments). For 6 the following parameters were used: ex. 610 nm, emission collected from 620-900 nm, slits 5 nm, step size 1 nm, integration time 1 s. Plotted is the DCM corrected, baseline corrected, normalized data. For 1, and 3-5, the following parameters were used: slits 5 nm, step size 1 nm, integration time, 0.25 s. […]
as §1

[3] = Emission spectra and absolute fluorescence quantum yield in dichloromethane (integrating sphere)
Protocol: as §2
Finally, the photoluminescence of Flav7 was compared to the prominent SWIR polymethine dyes, IR-26 and IR-1061. IR-26 has been widely-employed as a standard for this region, while IR-1061 has recently been the active component of nanomaterials for NIR-II in vivo imaging. Despite numerous studies which rely on these dyes, the reported ΦF for IR-26 have been inconsistent, and the ΦF of IR-1061 has yet to be thoroughly characterized. Consequently, to establish that Flav7 is more emissive than existing SWIR polymethine dyes, each dye's emission was directly compared using a SWIR camera. We prepared solutions of 3, IR-26, and IR-1061 in dichloromethane with identical absorbance at 808 nm, excited with a diffuse 808 nm laser, and imaged their emission over 1000-1500 nm.
as §3, §1

- photostability (in words) [1]: excellent photostabilities
SMILES: CN(C)c1ccc2c(c1)OC(c1ccccc1)=C/C2=C\c1cc(-c2ccccc2)[o+]c2cc(N(C)C)ccc12.O=C([O-])C(F)(F)F [Dye 6, (E)-7-(Dimethylamino)-4-((7-(dimethylamino)-2-phenyl-4H-chromen-4-ylidene)methyl)-2-phenylchromenylium 2,2,2-trifluoroacetate]

- absorption (DCM) λmax [2]: ~745 nm
- absorption (DCM) ε ([2]; at λmax): ~220,000 M^−1cm^−1
- ΦF relative to Flav3 ([3]; higher ΦF than Flav3): ~10 fold
SMILES: CN1C(=CC=CC=CC=CC2=[N+](C)c3ccccc3C2(C)C)C(C)(C)c2ccccc21.[I-] [HITCI, 1,1′,3,3,3′,3′-hexamethylindotricarbocyanine iodide]

The next lines start with the compound.

SMILES: CN(C)c1ccc2c(c1)OC(c1ccccc1)=C\C2=C/C=C/C=C/c1cc(-c2ccccc2)[o+]c2cc(N(C)C)ccc12.[O-][Cl+3]([O-])([O-])[O-] [Dye 4, 7-(dimethylamino)-4-((1E,3E)-5-((E)-7-(dimethylamino)-2-phenyl-4H-chromen-4-ylidene)penta-1,3-dien-1-yl)-2-phenylchromenylium perchlorate]
- photostability (in words) ([1]; listed as Flav5): excellent photostabilities; also recorded: desirable photostability

SMILES: CN(C)c1ccc2c(c1)OC(c1ccccc1)=C/C2=C\C=C\c1cc(-c2ccccc2)[o+]c2cc(N(C)C)ccc12.[O-][Cl+3]([O-])([O-])[O-] [Dye 5, 7-(Dimethylamino)-4-((E)-3-((E)-7-(dimethylamino)-2-phenyl-4H-chromen-4-ylidene)prop-1-en-1-yl)-2-phenylchromenylium perchlorate]
- photostability (in words) [1]: excellent photostabilities
- photostability relative to HITCI ([1]; more photostable than HITCI): 4 fold

SMILES: ClC1=C(/C=C/c2cc(-c3ccccc3)[s+]c(-c3ccccc3)c2)CCC/C1=C/C=C1C=C(c2ccccc2)SC(c2ccccc2)=C1.F[B-](F)(F)F [IR-1061]
- emission (DCM) λmax ([3]; dichloromethane): 1081 nm
- ΦF ([3]; dichloromethane, absolute quantum yield): 0.32±0.04%
